Experimental data taken from EP2790511B1 (Merck Sharp & Dohme Corp., priority 2011, dated 2013).

Target: T1, hROMK (hKir1.1) (Homo sapiens, UniProt P48048)
T1 construct: expressed in transfected cells
T1 sequence (P48048 1-391): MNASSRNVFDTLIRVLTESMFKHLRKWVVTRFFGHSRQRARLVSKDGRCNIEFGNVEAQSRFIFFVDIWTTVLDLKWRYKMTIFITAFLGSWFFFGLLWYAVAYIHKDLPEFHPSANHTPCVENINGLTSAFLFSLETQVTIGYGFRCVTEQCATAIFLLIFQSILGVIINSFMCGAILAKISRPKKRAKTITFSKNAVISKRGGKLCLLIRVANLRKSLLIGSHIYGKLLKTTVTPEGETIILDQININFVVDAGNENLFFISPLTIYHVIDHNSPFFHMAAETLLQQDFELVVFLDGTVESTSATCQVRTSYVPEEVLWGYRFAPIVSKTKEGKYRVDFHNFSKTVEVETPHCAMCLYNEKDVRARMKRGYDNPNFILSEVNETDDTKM
Experiment: Thallium Flux Assay
Format: cell-based
Settings: HEK293 cells stably expressing hROMK (hKir1.1), FLIPR-Tetra; read-out: Thallium Flux IC50
Experimental: Cell Culture Conditions- HEK293 cells stably expressing hROMK (hKir1.1) were grown at 37°C in a 10%CO2 humidified incubator in complete growth media: Dulbecco's Modified Eagle Medium supplemented with non-essential amino acids, Penicillin/Streptomycin/Glutamine, G418 and FBS. At >80% confluency, aspirate the media from the flask and rinse with 10 mL Calcium/Magnesium-free PBS. […] To dislodge the cell, gently bang the side of the flask with your hand. Triturate the cells completely and then transfer the cells to 25 mL complete media. Centrifuge at 1,500 rpm for 6 min followed by resuspension in complete growth media and determine cell concentration. […] Under ideal growth conditions and appropriate tissue culture practices, this cell line is stable for 40-45 passages.
• FluxOR™ Reagent (Component A) • FluxOR™ Assay Buffer (Component B) - 10X Concentrate • PowerLoad™ Concentrate (Component C) - 100X Concentrate • Probenecid (Component D) - Lyophilized sample is kept at -20°C. Water soluble, 100X after solubilization in 1 mL water. […] Store at 4°C. • Thallium sulfate (Tl2SO4) Concentrate (Component G) - 50 mM in water. Store at 4°C • DMSO (dimethyl sulfoxide, Component H) - 1 mL (100%)
• 1000X FluxOR™ Reagent: Reconstitute a vial of component A in 100 µl DMSO; Mix well; Store 10 µl aliquots at -20°C • 1X FluxOR™ Assay Buffer: Dilute Component B 10-fold with water; Adjust pH to 7.4 with Hepes/NaOH; Filter and store at 4°C • Probenecid/Assay Buffer: 100 mL of 1X FluxOR™ Assay Buffer; 1 mL of reconstituted component D; Store at 4°C • Loading Buffer (per microplate): 10 µl 1000X FluxOR™ Reagent; 100 µl component C; 10 mL Probenecid/Assay Buffer • Compound Buffer (per microplate): 20 mL Probenecid/Assay Buffer; 0.3 mM ouabain (10 mM ouabain in water can be stored in amber bottle/aluminum foil at room temperature); Test compound • 1X FluxOR™Chloride-Free Buffer: Prepare 1X working solution in water. Can be stored at room temperature • Stimulant Buffer (prepared at 5X final concentration in 1X FluxOR™Chloride-Free Buffer): 7.5 mM Thallium sulfate and 0.75 mM Potassium sulfate (to give a final assay concentration of 3 mM Thallium/ 0.3 mM Potassium). Store at 4°C when not in use. If kept sterile, this solution is good for months.
Assay protocol- The ROMK channel functional thallium flux assay is performed in 384 wells, using the FLIPR-Tetra instrument. HEK-hKir1.1 cells are seeded in Poly-D-Lysine microplates and kept in a 37°C-10%CO2 incubator overnight. On the day of the experiment, the growth media is replaced with the FluxOR™ reagent loading buffer and incubated, protected from light, at ambient temperature (23-25°C) for 90 min. The loading buffer is replaced with assay buffer ± test compound followed by 30 min incubation at ambient temperature, where the Thallium/Potassium stimulant is added to the microplate.
• 1. Seed HEK-hKir1.1 cells (50 µl at 20,000 cells/well) in 384-well PDL coated Microplates • 2. Allow cells to adhere overnight in humidified 37°C/10%CO2 incubator • 3. Completely remove cell growth media from microplate and replace with 25 µl loading buffer • 4. Incubate Microplate at room temperature, protected form light, for 90 min • 5. Remove loading buffer and replace with 25 µl 1x Assay Buffer ± test compound. • 6. Incubate microplate at room temperature, protected form light, for 30 min • 7. […] Excitation = 400 nm, Emission = 460 & 580 nm. Collect data for ∼ 10 min.
Data Calculation- The fluorescence intensity of wells containing 3 µM of a standard control ROMK inhibitor of the present invention is used to define the ROMK-sensitive component of thallium flux. Fluorescence in the presence of test compounds is normalized to control values to provide % fluorescence change.

Compound	IC50 [nM]
Cc1c(C2CN3CCN(C(=O)Cc4cnc(-n5cnnn5)nc4)CC3CCO2)ccc2c1COC2=O (single isomer, unassigned) [Example 165, 4-methyl-5-(2-{[2-(1H-tetrazol-1-yl)pyrimidin-5-yl]acetyl}octahydro-2H-pyrazino[1,2-d][1,4]oxazepin-7-yl)-2-benzofuran-1(3H)-one]	210
Cc1c([C@H]2CN3CCN(C(=O)Cc4ccc(-n5cnnn5)nc4)C[C@H]3CCO2)ccc(F)c1C#N (single isomer, unassigned) [Example 169]	180
Cc1c([C@@H]2CN3CCN(C(=O)Cc4ccc(-n5cnnn5)nc4)C[C@H]3CCO2)ccc(F)c1C#N (single isomer, unassigned) [Example 171]	270
N#Cc1c(F)ccc([C@H]2CN3CCN(C(=O)Cc4ccc(-n5cnnn5)nc4)C[C@H]3CO2)c1Cl [Example 10, 2-chloro-6-fluoro-3-[(3S,9aS)-8-{[6-(1H-tetrazol-1-yl)pvridin-3-yl]acetyl}octahydropyrazino[2,1-c][1,4]oxazin-3-yl]benzonitrile]	70
N#Cc1c(F)ccc([C@H]2CN3CCN(C(=O)Cc4ccc(-n5cnnn5)nc4)C[C@H]3CO2)c1F [Example 12, 2,6-difluoro-3-[(3S,9aS)-8-{[6-(1H-tetrazol-1-yl)pyridin-3-yl]acetyl}octahydropyrazino[2,1-c][1,4]oxazin-3-yl]benzonitrile]	120
Cc1c([C@H]2CN3CCN(C(=O)Cc4cnc(-n5cnnn5)nc4)C[C@H]3CO2)ccc2c1COC2=O [Example 15, 4-methyl-5-[(3S,9aS)-8-{[2-(1H-tetrazol-1-yl)pyrimidin-5-yl]acetyl}octahydropyrazino[2,1-c][1,4]oxazin-3-yl]benzofuran-1(3H)-one]	140
Cc1c([C@@H]2CN3CCN(C(=O)Cc4cnc(-n5cnnn5)nc4)C[C@H]3CO2)ccc2c1COC2=O [Example 16]	480
Cc1c(C#N)cccc1[C@@H]1CN2CCN(C(=O)Cc3cnc(-n4cnnn4)nc3)C[C@H]2CO1 [Example 17, 2-methyl-3-[(3R,9aS)-8-{[2-(1H-tetrazol-1-yl)pyrimidin-5-yl]acetyl}octahydropyrazino[2,1-c][1,4]oxazin-3-yl]benzonitrile]	160
Cc1c(C#N)cccc1[C@H]1CN2CCN(C(=O)Cc3cnc(-n4cnnn4)nc3)C[C@H]2CO1 [Example 18, 2-methyl-3-[(3S,9aS)-8-{[2-(1H-tetrazol-1-yl)pyrimidin-5-yl]acetyl}octahydropyrazino[2,1-c][1,4]oxazin-3-yl]benzonitrile]	320

Same assay, conditions: Thallium Flux IC50

Compound	IC50 [nM]
Cc1c(C2CN3CCN(C(=O)Cc4ccc(-n5cnnn5)nc4)CC3CCO2)ccc2c1COC2=O (single isomer, unassigned) [Example 163, 4-methyl-5-(2-{[6-(1H-tetrazol-1-yl)pyridin-3-yl]acetyl}octahydro-2H-pyrazino[1,2-d][1,4]oxazepin-7-yl)-2-benzofuran-1(3H)-one]	210
Cc1c(C2CN3CCN(C(=O)Cc4ccc(-n5cnnn5)nc4)CC3CCO2)ccc2c1COC2=O (single isomer, unassigned) [Example 164, 4-methyl-5-(2-{(6-(1H-tetrazol-1-yl)pyridin-3-yl]acetyl}octahydro-2H-pyrazino[1,2-d][1,4]oxazepin-7-yl)-2-benzofuran-1(3H)-one]	650
Cc1c([C@@H]2CN3CCN(C(=O)Cc4ccc(-n5cnnn5)nc4)C[C@@H]3CCO2)ccc(F)c1C#N (single isomer, unassigned) [Example 170]	240
Cc1c([C@H]2CN3CCN(C(=O)Cc4cnc(-n5cnnn5)nc4)C[C@H]3CCO2)ccc(F)c1C#N (single isomer, unassigned) [Example 172]	220
Cc1c([C@@H]2CN3CCN(C(=O)Cc4ccc(-n5cnnn5)nc4)C[C@H]3CO2)ccc(F)c1C#N [Example 5, 6-fluoro-2-methyl-3-[(3R,9aS)-8-{[6-(1H-tetrazol-1-yl)pyridin-3-yl]acetyl}octahydropyrazino[2,1-c][1,4]oxazin-3-yl]benzonitrile]	50
Cc1c([C@H]2CN3CCN(C(=O)Cc4cnc(-n5cnnn5)nc4)C[C@@H]3CO2)ccc(F)c1C#N [Example 9, 6-fluoro-2-methyl-3-[(3S,9aR)-8-{[2-(1H-tetrazol-1-yl)pyrimidin-5-yl]acetyl}octahydropyrazino[2,1-c][1,4]oxazin-3-yl]benzonitrile]	180
N#Cc1c(F)ccc([C@@H]2CN3CCN(C(=O)Cc4ccc(-n5cnnn5)nc4)C[C@H]3CO2)c1F [Example 11, 2,6-difluoro-3-[(3R,9aS)-8{[6-(1H-tetrazol-1-yl)pyridin-3-yl]acetyl}octahydropyrazino[2,1-c][1,4]oxazin-3-yl]benzonitrile]	90
Cc1c([C@@H]2CN3CCN(C(=O)Cc4cnc(-n5cnnn5)nc4)C[C@H]3CO2)ccc(F)c1C#N [Example 14]	80
C[C@@H]1Cc2cc([C@@H]3CN4CCN(C(=O)Cc5cnc(-n6cnnn6)nc5)C[C@H]4CO3)ccc2C(=O)O1 [Example 19]	160
C[C@H]1Cc2cc([C@@H]3CN4CCN(C(=O)Cc5cnc(-n6cnnn6)nc5)C[C@H]4CO3)ccc2C(=O)O1 [Example 20, (3S)-3-methyl-6-[(3R,9aS)-8-{[2-(1H-tetrazol-1-yl)pyrimidin-5-yl]acetyl}octahydropyrazino[2,1-c][1,4]oxazin-3-yl]-3,4-dihydro-1H-isochromen-1-one]	170
Cc1c([C@H]2CN3CCN(C(=O)Cc4ccc(-n5cnnn5)nc4)C[C@H]3CO2)ccc2c1COC2=O [Example 21, 4-methyl-5-[(3S,9aS)-8-{[6-(1H-tetrazol-1-yl)pyridin-3-yl]acetyl}octahydropyrazino[2,1-c][1,4]oxazin-3-yl]-2-benzofuran-1(3H)-one]	100
Cc1c([C@@H]2CN3CCN(C(=O)Cc4ccc(-n5cnnn5)nc4)C[C@H]3CO2)ccc2c1COC2=O [Example 22, 4-methyl-5-[(3R,9a,S)-8-{[6-(1H-tetrazol-1-yl)pyridin-3-yl]acetyl}octahydropyrazino[2,1-c][1,4]oxazin-3-y]-2-benzofuran-1(3H)-one]	160
Cc1c([C@@H]2CN3CCN(C(=O)Cc4ccc(-n5cnnn5)nc4)C[C@@H]3CO2)ccc2c1COC2=O [Example 23]	70

Same assay, conditions: read-out: Thallium Flux IC50

Compound	IC50 [nM]
2,6-difluoro-3-[3R,9aS)-8-{[2-methyl-6-(1H-tetrazol-1-vl)pvridin-3-yl]acetyl}octahydropyrazino[2,1-c][1,4]oxazin-3-yl]benzonitrile [Example 89]	70
O=C1OCCc2cc([C@@H]3CN4CCN(C(=O)Cc5ccc(-n6cnnn6)nc5)C[C@H]4CO3)ccc21 [Example 1]	80
